Assay results taken from PubChem BioAssay (NCI).
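Values below derive from 48-hour exposures of cells grown in 96-well plates, with endpoints linearly interpolated between the two concentrations bracketing the appropriate inhibition level. TGI denotes the concentration required for complete inhibition of growth.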

What was measured:
Assay in all cases: growth of human tumour cells (NCI), 48 h
M19-MEL melanoma = tested on: M19-MEL melanoma
MOLT-4 leukemia = tested on: MOLT-4 leukemia
RXF 393 renal = tested on: RXF 393 renal
COLO 205 colon = tested on: COLO 205 colon
SNB-78 CNS = tested on: SNB-78 CNS
HCC-2998 colon = tested on: HCC-2998 colon
HL-60(TB) leukemia = tested on: HL-60(TB) leukemia
A549 NSCLC = tested on: A549 NSCLC
OVCAR-8 ovarian = tested on: OVCAR-8 ovarian
SK-MEL-5 melanoma = tested on: SK-MEL-5 melanoma
SF-268 CNS = tested on: SF-268 CNS
CAKI-1 renal = tested on: CAKI-1 renal
UO-31 renal = tested on: UO-31 renal
IGROV1 ovarian = tested on: IGROV1 ovarian
HOP-62 NSCLC = tested on: HOP-62 NSCLC
LXFL 529 NSCLC = tested on: LXFL 529 NSCLC
LOX IMVI melanoma = tested on: LOX IMVI melanoma
SR leukemia = tested on: SR leukemia
RPMI-8226 leukemia = tested on: RPMI-8226 leukemia
M14 melanoma = tested on: M14 melanoma
HT29 colon = tested on: HT29 colon
NCI-H460 lung = tested on: NCI-H460 lung
EKVX NSCLC = tested on: EKVX NSCLC
SW-620 colon = tested on: SW-620 colon
SNB-75 CNS = tested on: SNB-75 CNS
CCRF-CEM leukemia = tested on: CCRF-CEM leukemia
KM20L2 colon = tested on: KM20L2 colon
TK-10 renal = tested on: TK-10 renal
HCT-116 colon = tested on: HCT-116 colon
NCI-H226 lung = tested on: NCI-H226 lung
OVCAR-5 ovarian = tested on: OVCAR-5 ovarian
SN12C renal = tested on: SN12C renal
SK-MEL-28 melanoma = tested on: SK-MEL-28 melanoma
HCT-15 colon = tested on: HCT-15 colon
NCI-H522 lung = tested on: NCI-H522 lung
A498 renal = tested on: A498 renal
UACC-62 melanoma = tested on: UACC-62 melanoma
XF 498 CNS = tested on: XF 498 CNS
OVCAR-3 ovarian = tested on: OVCAR-3 ovarian
HOP-92 NSCLC = tested on: HOP-92 NSCLC
786-0 renal = tested on: 786-0 renal
SNB-19 CNS = tested on: SNB-19 CNS
SK-OV-3 ovarian = tested on: SK-OV-3 ovarian
ACHN renal = tested on: ACHN renal
SF-295 CNS = tested on: SF-295 CNS
KM12 colon = tested on: KM12 colon
U251 CNS = tested on: U251 CNS
HOP-18 NSCLC = tested on: HOP-18 NSCLC
MALME-3M melanoma = tested on: MALME-3M melanoma
SK-MEL-2 melanoma = tested on: SK-MEL-2 melanoma
NCI-H23 lung = tested on: NCI-H23 lung
DLD-1 colon = tested on: DLD-1 colon
DMS 273 small cell lung = tested on: DMS 273 small cell lung
OVCAR-4 ovarian = tested on: OVCAR-4 ovarian
UACC-257 melanoma = tested on: UACC-257 melanoma
K-562 leukemia = tested on: K-562 leukemia
DMS 114 small cell lung = tested on: DMS 114 small cell lung
SF-539 CNS = tested on: SF-539 CNS
RXF-631 renal = tested on: RXF-631 renal

Measured: TGI

O=c1ncccn1[C@@H]1O[C@H](CO)[C@H](O)C1O (stereo not given in full)
> 100 µM: M19-MEL melanoma | MOLT-4 leukemia | RXF 393 renal | COLO 205 colon | SNB-78 CNS | HCC-2998 colon | HL-60(TB) leukemia | A549 NSCLC | OVCAR-8 ovarian | SK-MEL-5 melanoma | SF-268 CNS | CAKI-1 renal | UO-31 renal | IGROV1 ovarian | HOP-62 NSCLC | LXFL 529 NSCLC | LOX IMVI melanoma | SR leukemia | RPMI-8226 leukemia | M14 melanoma | HT29 colon | NCI-H460 lung | EKVX NSCLC | SW-620 colon | SNB-75 CNS | CCRF-CEM leukemia | KM20L2 colon | TK-10 renal | HCT-116 colon | NCI-H226 lung | OVCAR-5 ovarian | SN12C renal | SK-MEL-28 melanoma | HCT-15 colon | NCI-H522 lung | A498 renal | UACC-62 melanoma | XF 498 CNS | OVCAR-3 ovarian | HOP-92 NSCLC | 786-0 renal | SNB-19 CNS | SK-OV-3 ovarian | ACHN renal | SF-295 CNS | KM12 colon | U251 CNS | HOP-18 NSCLC | MALME-3M melanoma | SK-MEL-2 melanoma | NCI-H23 lung | DLD-1 colon | DMS 273 small cell lung | OVCAR-4 ovarian | UACC-257 melanoma | K-562 leukemia | DMS 114 small cell lung | SF-539 CNS

CN(C(=O)/C=C/c1ccccc1)C1C2CN3CCC(O2)C13 (stereo not given)
> 100 µM: MOLT-4 leukemia | RXF 393 renal | COLO 205 colon | SNB-78 CNS | HCC-2998 colon | HL-60(TB) leukemia | A549 NSCLC | OVCAR-8 ovarian | SK-MEL-5 melanoma | SF-268 CNS | CAKI-1 renal | UO-31 renal | IGROV1 ovarian | HOP-62 NSCLC | LXFL 529 NSCLC | LOX IMVI melanoma | M14 melanoma | HT29 colon | NCI-H460 lung | EKVX NSCLC | SW-620 colon | SNB-75 CNS | CCRF-CEM leukemia | KM20L2 colon | TK-10 renal | HCT-116 colon | NCI-H226 lung | OVCAR-5 ovarian | SN12C renal | SK-MEL-28 melanoma | HCT-15 colon | NCI-H522 lung | A498 renal | UACC-62 melanoma | XF 498 CNS | OVCAR-3 ovarian | 786-0 renal | SNB-19 CNS | SK-OV-3 ovarian | ACHN renal | SF-295 CNS | KM12 colon | U251 CNS | HOP-18 NSCLC | MALME-3M melanoma | SK-MEL-2 melanoma | NCI-H23 lung | DLD-1 colon | DMS 273 small cell lung | OVCAR-4 ovarian | UACC-257 melanoma | K-562 leukemia | DMS 114 small cell lung | SF-539 CNS

Cc1c(OC(C)C(=O)O)ccc2c(-c3ccccc3)cc(=O)oc12 (stereo not given)
> 100 µM: M19-MEL melanoma | MOLT-4 leukemia | RXF 393 renal | COLO 205 colon | SNB-78 CNS | HCC-2998 colon | HL-60(TB) leukemia | A549 NSCLC | OVCAR-8 ovarian | SK-MEL-5 melanoma | SF-268 CNS | CAKI-1 renal | UO-31 renal | IGROV1 ovarian | HOP-62 NSCLC | LXFL 529 NSCLC | LOX IMVI melanoma | SR leukemia | RPMI-8226 leukemia | M14 melanoma | HT29 colon | NCI-H460 lung | EKVX NSCLC | SW-620 colon | SNB-75 CNS | CCRF-CEM leukemia | KM20L2 colon | TK-10 renal | HCT-116 colon | NCI-H226 lung | SN12C renal | SK-MEL-28 melanoma | NCI-H522 lung | A498 renal | UACC-62 melanoma | XF 498 CNS | OVCAR-3 ovarian | HOP-92 NSCLC | 786-0 renal | SNB-19 CNS | SK-OV-3 ovarian | RXF-631 renal | ACHN renal | SF-295 CNS | KM12 colon | U251 CNS | HOP-18 NSCLC | MALME-3M melanoma | NCI-H23 lung | DLD-1 colon | OVCAR-4 ovarian | UACC-257 melanoma | K-562 leukemia | DMS 114 small cell lung | SF-539 CNS

IC[P+]1(c2ccccc2)CCCC1
89 µM: NCI-H226 lung
81 µM: M19-MEL melanoma
83.1 µM: SK-MEL-5 melanoma
62.7 µM: SNB-75 CNS
88.6 µM: A498 renal
> 100 µM: MOLT-4 leukemia | RXF 393 renal | SNB-78 CNS | HCC-2998 colon | HL-60(TB) leukemia | A549 NSCLC | OVCAR-8 ovarian | UO-31 renal | IGROV1 ovarian | HOP-62 NSCLC | LXFL 529 NSCLC | LOX IMVI melanoma | SR leukemia | RPMI-8226 leukemia | M14 melanoma | HT29 colon | SW-620 colon | CCRF-CEM leukemia | KM20L2 colon | TK-10 renal | HCT-116 colon | OVCAR-5 ovarian | SK-MEL-28 melanoma | HCT-15 colon | UACC-62 melanoma | OVCAR-3 ovarian | 786-0 renal | SNB-19 CNS | SK-OV-3 ovarian | ACHN renal | SF-295 CNS | KM12 colon | HOP-18 NSCLC | MALME-3M melanoma | SK-MEL-2 melanoma | NCI-H23 lung | DLD-1 colon | DMS 273 small cell lung | UACC-257 melanoma | K-562 leukemia | SF-539 CNS
31 µM: COLO 205 colon
60.8 µM: SN12C renal
21.6 µM: NCI-H522 lung
29.4 µM: U251 CNS
46.1 µM: EKVX NSCLC
36.3 µM: DMS 114 small cell lung
76.9 µM: NCI-H460 lung
